From patent US20100227935A1, “CLASS OF TERPENE-DERIVED COMPOUNDS HAVING AN ANTIBIOTIC ACTIVITY, COMPOSITIONS CONTAINING THE SAME AND USES THEREOF” (Centre National De La Recherche Scientifique, priority 2006, published 2010)
Values after ≈ are worked out from the molar mass of the structure shown.

Experiments:
[1] = system: Staphylococcus aureus H18; assay: MIC / antibiotic susceptibility; type: cell-based; further: key: R: strain resistant to antibiotic concerned; S: strain sensitive to antibiotic concerned; L strain with intermediate resistance to antibiotic concerned
[2] = system: Staphylococcus aureus H7; assay: MIC / antibiotic susceptibility; type: cell-based; further: key: R: strain resistant to antibiotic concerned; S: strain sensitive to antibiotic concerned; L strain with intermediate resistance to antibiotic concerned
[3] = system: Staphylococcus aureus H4; assay: MIC / antibiotic susceptibility; type: cell-based; further: key: R: strain resistant to antibiotic concerned; S: strain sensitive to antibiotic concerned; L strain with intermediate resistance to antibiotic concerned
[4] = system: Staphylococcus aureus H3; assay: MIC / antibiotic susceptibility; type: cell-based; further: key: R: strain resistant to antibiotic concerned; S: strain sensitive to antibiotic concerned; L strain with intermediate resistance to antibiotic concerned
[5] = system: Staphylococcus aureus H9; assay: MIC / antibiotic susceptibility; type: cell-based
[6] = system: Staphylococcus aureus H16; type: cell-based
[7] = system: Staphylococcus aureus H1; assay: MIC / antibiotic susceptibility; type: cell-based
[8] = system: C. difficile; conditions: molecules in current use or in clinical trials (phase III); cited from earlier work
[9] = system: C. difficile; conditions: cited from earlier work

Compound | Susceptibility of strain to antibiotic [1] | Susceptibility of strain to antibiotic [2] | Susceptibility of strain to antibiotic [3] | Susceptibility of strain to antibiotic [4] | Susceptibility of strain to antibiotic [5] | Susceptibility of strain to antibiotic [6] | Susceptibility of strain to antibiotic [7] | MIC on C. difficile [8] [µg/mL] | Patients for whom the drug is inactive ([9]; first intention treatment of C. difficile infection) [%] | Relapses ([9]; treatment of C. difficile infection)
NCC[C@H](O)C(=O)N[C@@H]1C[C@H](N)[C@@H](O[C@H]2O[C@H](CN)[C@@H](O)[C@H](O)[C@H]2O)[C@H](O)[C@H]1O[C@H]1O[C@H](CO)[C@@H](O)[C@H](N)[C@H]1O [Amikacin] | R | S | R | S | S | R | S | – | – | –
CC1(C)S[C@@H]2[C@H](NC(=O)[C@H](N)c3ccc(O)cc3)C(=O)N2[C@H]1C(=O)O [Amoxicillin] | R | R | R | R | R | R | R | – | – | –
Cc1nnc(SCC2=C(C(=O)O)N3C(=O)[C@@H](NC(=O)Cn4cnnn4)[C@H]3SC2)s1 [Cefazoline] | R | S | R | S | S | R | S | – | – | –
C[C@H]1c2cccc(O)c2C(O)=C2C(=O)[C@]3(O)C(O)=C(C(N)=O)C(=O)[C@@H](N(C)C)[C@@H]3[C@@H](O)[C@@H]21 [Doxycyclin] | S | S | S | S | S | – | S | – | – | –
CC[C@H]1OC(=O)[C@H](C)[C@@H](O[C@H]2C[C@@](C)(OC)[C@@H](O)[C@H](C)O2)[C@H](C)[C@@H](O[C@@H]2O[C@H](C)C[C@H](N(C)C)[C@H]2O)[C@](C)(O)C[C@@H](C)C(=O)[C@H](C)[C@@H](O)[C@]1(C)O [Erythromycin] | R | R | S | R | R | R | S | – | – | –
C[C@@H]1O[C@@H]1P(=O)(O)O [Fosfomycin] | R | S | S | S | S | R | S | – | – | –
CC(=O)O[C@H]1C[C@@]2(C)[C@@H](C[C@@H](O)[C@H]3[C@@]4(C)CC[C@@H](O)[C@@H](C)[C@@H]4CC[C@@]32C)/C1=C(\CCC=C(C)C)C(=O)O [Fusidic acid] | S | S | S | S | R | S | S | – | – | –
CCc1c(Cl)c(O)c(Cl)c(O)c1C(=O)O[C@H]1[C@H](O)[C@H](OC)[C@H](OC/C2=C\C=C\C[C@H](O)/C(C)=C/[C@H](CC)[C@@H](O[C@@H]3OC(C)(C)[C@@H](OC(=O)C(C)C)[C@H](O)[C@@H]3O)/C(C)=C/C(C)=C/C[C@@H]([C@@H](C)O)OC2=O)O[C@@H]1C [Lipiarmycin] | – | – | – | – | – | – | – | 0.06 to 2 | – | –
Cc1ncc([N+](=O)[O-])n1CCO [Metronidazole] | – | – | – | – | – | – | – | 1 (≈ 5.84 µM) | 25 | 25 % of cases
CC(=O)Oc1ccccc1C(=O)Nc1ncc([N+](=O)[O-])s1 [Nitazoxanide] | – | – | – | – | – | – | – | 0.1 (≈ 0.325 µM) | – | –
CCn1cc(C(=O)O)c(=O)c2cc(F)c(N3CCNCC3)cc21 [Norfloxacin] | R | R | R | R | S | R | S | – | – | –
CC1COc2c(N3CCN(C)CC3)c(F)cc3c(=O)c(C(=O)O)cn1c23 (stereo not drawn) [Ofloxacin] | R | R | R | R | S | R | S | – | – | –
Cc1onc(-c2ccccc2)c1C(=O)N[C@@H]1C(=O)N2[C@@H]1SC(C)(C)[C@@H]2C(=O)O [Oxacillin] | R | S | R | S | S | R | S | – | – | –
CC1(C)S[C@@H]2[C@H](NC(=O)Cc3ccccc3)C(=O)N2[C@H]1C(=O)O [Penicillin G] | R | R | R | R | R | R | R | – | – | –
CCN1CCN(C(=O)N[C@@H](C(=O)N[C@@H]2C(=O)N3[C@@H]2SC(C)(C)[C@@H]3C(=O)O)c2ccccc2)C(=O)C1=O [Piperacillin] | R | R | R | R | R | R | R | – | – | –
CO[C@H]1/C=C/O[C@@]2(C)Oc3c(C)c(O)c4c(O)c(c(/C=N/N5CCN(C)CC5)c(O)c4c3C2=O)NC(=O)/C(C)=C\C=C\[C@H](C)[C@H](O)[C@@H](C)[C@@H](O)[C@@H](C)[C@H](OC(C)=O)[C@@H]1C [Rifampicin] | S | S | S | S | S | R | S | – | – | –
CO[C@H]1/C=C/O[C@@]2(C)Oc3c(C)c(O)c4c(O)c(c5c(nc6cc(C)ccn65)c4c3C2=O)NC(=O)/C(C)=C\C=C\[C@H](C)[C@H](O)[C@@H](C)[C@@H](O)[C@@H](C)[C@H](OC(C)=O)[C@@H]1C [Rifaximin] | – | – | – | – | – | – | – | 0.08 to 0.2 | – | –
CN(C)[C@@H]1C(O)=C(C(N)=O)C(=O)[C@@]2(O)C(O)=C3C(=O)c4c(O)cccc4[C@@](C)(O)[C@H]3C[C@@H]12 [Tetracycline] | – | – | S | S | – | R | S | – | – | –
NC[C@H]1O[C@H](O[C@H]2[C@H](O)[C@@H](O[C@H]3O[C@H](CO)[C@@H](O)[C@H](N)[C@H]3O)[C@H](N)C[C@@H]2N)[C@H](N)C[C@@H]1O [Tobramycin] | R | S | R | S | S | R | S | – | – | –
CN[C@H](CC(C)C)C(=O)N[C@H]1C(=O)N[C@@H](CC(N)=O)C(=O)N[C@H]2C(=O)N[C@H]3C(=O)N[C@H](C(=O)N[C@H](C(=O)O)c4cc(O)cc(O)c4-c4cc3ccc4O)[C@H](O)c3ccc(c(Cl)c3)Oc3cc2cc(c3O[C@@H]2O[C@H](CO)[C@@H](O)[C@H](O)[C@H]2O[C@H]2C[C@](C)(N)[C@H](O)[C@H](C)O2)Oc2ccc(cc2Cl)[C@H]1O [Vancomycin] | R | S | S | S | S | S | S | ~1 (≈ 0.69 µM) | – | –
Co-trimoxazole | S | S | S | S | S | S | S | – | – | –
Gentamicin | S | S | S | S | S | R | S | – | – | –
Pristinamycin | S | S | S | S | S | – | S | – | – | –
Teicoplanin | R | S | S | S | S | – | S | – | – | –
